Data taken from BindingDB's records for doi:10.1016/j.bmcl.2017.10.053 (Vanderbilt University School of Medicine, 2017).
pEC50: −log10 of the molar value.

Biological target: T1, Muscarinic acetylcholine receptor M4 (Homo sapiens, UniProt P08173)
T1 sequence (P08173 whole entry): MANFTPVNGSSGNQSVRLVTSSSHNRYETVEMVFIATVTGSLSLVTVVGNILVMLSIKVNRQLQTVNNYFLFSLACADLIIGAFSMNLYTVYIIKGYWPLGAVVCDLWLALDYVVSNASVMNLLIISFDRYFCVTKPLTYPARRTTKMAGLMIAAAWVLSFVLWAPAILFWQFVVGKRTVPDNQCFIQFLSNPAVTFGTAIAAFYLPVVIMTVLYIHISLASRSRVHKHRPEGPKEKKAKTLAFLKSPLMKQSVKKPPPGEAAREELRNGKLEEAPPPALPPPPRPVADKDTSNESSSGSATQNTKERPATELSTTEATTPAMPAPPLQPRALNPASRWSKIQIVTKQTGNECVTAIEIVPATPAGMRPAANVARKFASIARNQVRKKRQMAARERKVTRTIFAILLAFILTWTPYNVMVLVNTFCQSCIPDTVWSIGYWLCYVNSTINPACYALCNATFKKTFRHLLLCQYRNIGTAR
Test: Positive allosteric modulation of human M4 receptor expressed in CHO cells co-expressing Gqi5 assessed as increase in acetylcholine-induced calcium mobilization

pEC50: 6.49
SMILES: Cc1nnc2sc(C(=O)N3CC4(CCN(c5cccnc5)C4)C3)c(N)c2c1C
